From patent US20150236379A1, “ADDITIVES FOR GALVANIC CELLS” (ROCKWOOD LITHIUM GMBH, priority 2012, published 2015)
Like-named read-outs stand apart in the source and are kept apart here.

Tests used:
[1] = Solubility in conventional battery solvents; type: physicochemical
Text: This was not to be expected, since it is known that many Cs salts having large, weakly coordinating anions are relatively poorly soluble in water (A. Nadjafi, Microchim. Acta 1973, 689-696).
The abbreviation BOB stands for bis-(oxalato)borate (C4O8B)^−, BMB for bis-(malonato)borate (C6H4O8B)^−, NMP for N-methylpyrrolidone, EC for ethylene carbonate, DMC for dimethyl carbonate, EMC for ethyl methyl carbonate and PC for propylene carbonate.

[2] = Thermal stability, thermogravimetric experiment under argon flow; type: physicochemical
Method: In a 1-L round-bottom glass flask, 38.67 g boric acid and […] oxalic acid dihydrate were suspended in 121 g water. 102.9 g cesium carbonate was added in portions, with magnetic stirring (vigorous foaming due to CO2 generation). After the addition was complete, the white suspension was evaporated on a rotary evaporator, initially at 100° C. and 400 mbar. The colorless solid residue was then ground and subjected to final drying at 180° C. and 20 mbar for 3 h. • Yield: 197.3 g of colorless powder (97% of theoretical) • Cs content: 41.0% • […] ^11B=7.4 ppm (solution in DMSO-d6) • Thermal stability: 290° C. (onset of thermal decomposition in the thermogravimetric experiment under argon flow)

[3] = Cs content (FES) in filtered electrolyte solution after stirring with excess additive; type: physicochemical; conditions: stirred 24 h, membrane filtered
Method: In an Ar-filled glove box, 10 g of an 11 wt.-% LiBOB solution in ethylene carbonate/ethylmethyl carbonate (1:1, wt./wt.) was mixed with 0.32 g CsBOB and magnetically stirred for 24 h. The suspension was then filter-clarified by membrane filtration ([…] PTFE). • Cs content (FES) in the electrolyte solution: 0.05 wt.-%
In an Ar-filled glove box, 10 g of a 10 wt-% […] solution in ethylene carbonate/ethylmethyl carbonate (1:1, wt./wt.) was mixed with 0.47 g CsClO4 and magnetically stirred for 24 h. The suspension was then filter-clarified by membrane filtration ([…] PTFE). • Cs content (FES) in the electrolyte solution: 0.07 wt.-%

[4] = Additive salt solubility in lithium conducting salt electrolyte solutions
[5] = cited from earlier work
[6] = supporting electrolyte LiBOB, 10% EC/EMC
[7] = supporting electrolyte LiPF6, 10% EC/EMC

SMILES	Solubility [1] [mM]	Solubility (Wt. %) [1] [Wt. %]	Solubility ([1]; solvent EC/DMC (1:1)) [mM]	Solubility (Wt. %) ([1]; solvent EC/DMC (1:1))	Solubility ([1]; solvent NMP) [mM]	Solubility (Wt. %) ([1]; solvent NMP)	Solubility ([1]; solvent PC) [mM]	Solubility (Wt. %) ([1]; solvent PC)	Thermal stability (onset of thermal decomposition) [2] [°C]	Cs content (FES) in the electrolyte solution ([3]; 11 wt.-% LiBOB in EC/EMC (1:1, wt./wt.)) [wt.-%]	Additive Salt Solubility [4, 6] [mM]	Additive Salt Solubility (wt.-%) [4, 6] [wt.-%]	Additive Salt Solubility [4, 7] [mM]	Additive Salt Solubility (wt.-%) [4, 7] [wt.-%]	Cs content (FES) in the electrolyte solution ([3]; 10 wt-% LiPF5 in EC/EMC (1:1, wt./wt.)) [wt.-%]	solubility in water ([5]; 0° C.) [g/100 mL]	solubility in water ([5]; 25° C.) [g/100 mL]
O=C1CC(=O)O[B-]2(O1)OC(=O)CC(=O)O2.[Cs+] [CsBMB]	50	1.8															
O=C1O[B-]2(OC1=O)OC(=O)C(=O)O2.[Cs+] [CsBOB, Cesium bis(oxalato)borate]			70	1.8	270	7.9	60	1.5	290	0.05	4	0.12	40	1.2			
[Cs+].[O-][Cl+3]([O-])([O-])[O-] [CsClO4, cesium perchlorate]							70	1.3			5	0.12	40	0.9	0.07	0.8	1.97
O=C1O[B-]2(OC1=O)OC(=O)C(=O)O2.[Rb+] [RbBOB]	30	0.64									1	0.03	40	1.2			
